# Results taken from patent publication US9402827B2, “Treatment of gout” (ARDEA BIOSCIENCES, INC., priority 2010, dated 2016).
# “And” between values parts separate entries of the source, which are not always exact repeats. Identical values can stand only once.
# Assays:
# [1] = test system: monosodium urate (MSU) crystal injection-induced inflammation; experiment: In vivo MSU-induced inflammation, rat air pouch study (Example 3B); parameters: species or system Sprague-Dawley rats; settings: for Extravasation (optical absorbance at 620 nm), Av / Extravasation (optical absorbance at 620 nm), individual rats 1-10 / Exudate volume, Av / Exudate volume, individual rats 1-10 / Total white blood cell count, Av / Total white blood cell count, individual rats 1-10: 4 h after MSU
# Description: (Air Pouch studies) were unpacked, placed in cages, a health inspection performed and a number assigned. […] Under anesthesia, 30 mL sterile air was injected subcutaneously on day 0 and day 3. Vehicle (water) or Lesinurad were administered orally. On the day of the experiment, rats were dosed with Vehicle, Lesinurad p.o., and/or colchicine s.c. (Sigma, Cat.#C9754, Lot.#188K1131). […] The pouch was gently massaged and the exudate was immediately removed from the air pouch. The exudate volume was measured and recorded for each animal. […] The supernatants were stored at −20° C. for cytokine analysis. […] Plasma extravasation was measured by optical absorbance at 620 nm for each exudate sample.
# [2] = test system: MSU-induced knee joint swelling; experiment: In vivo MSU-induced inflammation, rat knee joint study (Example 3C); parameters: species or system Sprague-Dawley rats; settings: for Average increase in knee diameter: 4 h after MSU
# Description: [table] Groups 1 and 2 were orally dosed with Vehicle (sterile water) once daily for seven days from Day 1. […] Groups 6 and 7 were orally dosed with Lesinurad once daily for seven days from Day 1; Group 7 also received colchicine administered subcutaneously on Day 7. […] The injection was performed from the anterior aspect of the knee joint, which was slightly extended and flexed. […] Four hours after MSU administration, the rats were anesthetized, the diameter of right knee joints were measured with calipers; surface temperature for right knees were measured. Synovial lavage fluid from the knee was collected by injecting phosphate buffered saline with 1% BSA (0.2 mL) into the joint cavity, the fluid then collected, centrifuged and the supernatants stored at −80° C.
# gout flares = settings: allopurinol dosed with colchicine (0.5 mg QD); separate study; cited from earlier work
# [3] = in certain instances; cited from earlier work
# TNF-α = experiment: Effect of rilonacept on TNF-α production (Example 1, FIG. 2A); format: cell-based; settings: 6 hour time point
# Text: (§1) FIG. 2 illustrates the effect of rilonacept […] on TNF-α (FIG. 2A) and IL-1β production (FIG. 2B).
# (§2) Activation of the inflammasome results in the release of preformed IL-1, which goes on to activate other targets as well as increase the production of IL-1 itself.
# IL-1β = experiment: Effect of rilonacept on IL-1β production (Example 1, FIG. 2B); format: cell-based
# Text: as §1, §2
# [4] = in certain instances; cited from earlier work; remark: listed apart in the source
molecule,measurement,setting,value
"COc1cc2c(c(OC)c1OC)-c1ccc(OC)c(=O)cc1[C@@H](NC(C)=O)CC2 [Colchicine, reference compound]","Extravasation (optical absorbance at 620 nm), Av",[1]; Colchicine 0.01 mg/kg s.c.,1.78
same,"Extravasation (optical absorbance at 620 nm), individual rats 1-10",[1]; Colchicine 0.01 mg/kg s.c.,1.34 and 1.53 and 1.46 and 1.67 and 1.63 and 1.74 and 2.62 and 2.39 and 1.99 and 1.42
same,"Exudate volume, Av",[1]; Colchicine 0.01 mg/kg s.c.,9.8 mL
same,"Exudate volume, individual rats 1-10",[1]; Colchicine 0.01 mg/kg s.c.,12 mL (2×) and 8 mL (3×) and 10 mL and 9 mL (2×) and 11 mL (2×)
same,"Total white blood cell count, Av",[1]; Colchicine 0.01 mg/kg s.c.,1.65 ×10^8
same,"Total white blood cell count, individual rats 1-10",[1]; Colchicine 0.01 mg/kg s.c.,0.87 ×10^8 and 2.72 ×10^8 and 3.40 ×10^8 and 0.63 ×10^8 and 2.27 ×10^8 and 0.90 ×10^8 and 2.22 ×10^8 and 2.42 ×10^8 and 0.69 ×10^8 and 0.34 ×10^8
same,"Extravasation (optical absorbance at 620 nm), Av",[1]; Colchicine 0.1 mg/kg s.c.,1.29
same,"Extravasation (optical absorbance at 620 nm), individual rats 1-10",[1]; Colchicine 0.1 mg/kg s.c.,1.25 and 1.41 and 1.31 and 1.74 and 0.68 and 1.75 and 1.72 and 0.98 and 0.83 and 1.22
same,"Exudate volume, Av",[1]; Colchicine 0.1 mg/kg s.c.,9.86 mL
same,"Exudate volume, individual rats 1-10",[1]; Colchicine 0.1 mg/kg s.c.,9 mL (2×) and 8 mL (2×) and 10 mL and 7.8 mL and 9.8 mL and 11 mL (2×) and 15 mL
same,"Total white blood cell count, Av",[1]; Colchicine 0.1 mg/kg s.c.,0.78 ×10^8
same,"Total white blood cell count, individual rats 1-10",[1]; Colchicine 0.1 mg/kg s.c.,0.41 ×10^8 and 0.14 ×10^8 and 2.60 ×10^8 and 1.21 ×10^8 and 0.32 ×10^8 and 1.27 ×10^8 and 1.51 ×10^8 and 0.03 ×10^8 and 0.06 ×10^8 and 0.27 ×10^8
same,"Extravasation (optical absorbance at 620 nm), Av",[1]; Colchicine 1 mg/kg s.c.,0.89
same,"Extravasation (optical absorbance at 620 nm), individual rats 1-10",[1]; Colchicine 1 mg/kg s.c.,0.75 and 0.36 and 1.17 and 1.19 and 1.24 (2×) and 1.12 and 0.52 and 0.73 and 0.59
same,"Exudate volume, Av",[1]; Colchicine 1 mg/kg s.c.,6.13 mL
same,"Exudate volume, individual rats 1-10",[1]; Colchicine 1 mg/kg s.c.,8 mL (2×) and 4.4 mL and 7 mL and 5.9 mL and 8.6 mL and 5.6 mL and 4.6 mL and 4 mL and 5.2 mL
same,"Total white blood cell count, Av",[1]; Colchicine 1 mg/kg s.c.,0.56 ×10^8
same,"Total white blood cell count, individual rats 1-10",[1]; Colchicine 1 mg/kg s.c.,0.36 ×10^8 and 0.01 ×10^8 and 3.43 ×10^8 and 0.32 ×10^8 and 0.52 ×10^8 and 0.26 ×10^8 (2×) and 0.35 ×10^8 and 0.03 ×10^8 and 0.09 ×10^8
same,"Number of white blood cells, in words","[1]; Colchicine 0.01, 0.1, 1 mg/kg",dose-dependently lowered the number of white blood cells
same,"Extravasation, in words","[1]; Colchicine 0.01, 0.1 and 1 mg/kg",dose-dependent decrease in extravasation
same,"Exudate volume, in words",[1]; colchicine 1 mg/kg,significantly reduced exudate volume
same,"Exudate volume, in words",[1]; colchicine 0.01 and 0.1 mg/kg,did not significantly reduce exudate volume
same,Average increase in knee diameter,"[2]; Colchicine 0.1 mg/kg s.c., p < 0.01 vs Vehicle",0.71 mm
same,Average increase in knee diameter,"[2]; Colchicine 0.3 mg/kg s.c., p < 0.001 vs Vehicle",0.53 mm
same,Average increase in knee diameter,"[2]; Colchicine 1 mg/kg s.c., p < 0.001 vs Vehicle",0.41 mm
same,"MSU-induced increase in knee diameter, in words","[2]; Colchicine 0.1, 0.3 and 1 mg/kg",dose-dependently decreased the MSU-induced increase in knee diameter
Oc1ncnc2[nH]ncc12 [allopurinol],patients experiencing flares,gout flares,28%
same,"incidence of side effects, of all individuals treated",[3],20%
rilonacept,TNF-α production,TNF-α,only inhibits the production of TNF-α
same,IL-1 production,IL-1β,does not reduce IL-1 production
CCCN(CCC)S(=O)(=O)c1ccc(C(=O)O)cc1 [probenecid],individuals who fail to achieve reduction of serum uric acid levels <6 mg/dL,[4],25-50%
